Measurements as given in patent publication US20260345517A1, “DOSAGE REGIMENS FOR TREATING STARGARDT DISEASE” (Alkeus Pharmaceuticals, Inc., priority 2024, published 2026).

What was measured:
[1] = Open-label multiple dose pharmacokinetic study in healthy volunteers (percentage of deuterated vitamin A in plasma, LC/MS); type: in vivo, human; conditions: fasting
Procedure: Study Design: This was an open-label, non-randomized, multiple dose study in healthy volunteers aged 21 to 70 years of age (inclusion criteria). Subjects who met all entrance criteria at screening were invited to receive the study medication. There were six treatment arms: 2 mg/day, 3.5 mg/day, 5 mg/day, 7 mg/day, 10 mg/day and 14 mg/day gildeuretinol acetate. For the four lower dose groups, the dose regimen was one capsule per day, orally, to be taken at home, preferably in the evening unless a different time was preferred by the subject. For the two highest doses, the dose regimen was two capsules per day, one in the morning and one in the evening, although subjects with a preference to take both capsules at once were offered to do so. After taking the 1st dose at the study site, subjects were invited to return two and four weeks after starting the treatment.
The clinical staff made periodic calls to monitor adverse events and ensure subject compliance. In addition, a text message was sent daily to remind subjects to take their medication. Subjects were instructed to avoid foods that contain large amounts of vitamin A (such as liver-based products), including supplements containing vitamin A, and to report their vitamin A intake by answering a daily text message diary. Fruits and vegetables were permitted without restriction.
Deuterated retinol (gildeuretinol) (“D3”) and non-deuterated retinol (“Do”) and other vitamin A metabolites were measured to calculate the percentage of deuterated vitamin A in plasma. For all treatment groups, plasma samples were collected at baseline, 14±1 days (“2 weeks”) and 28±1 days (“4 weeks”) after initiation of treatment. Blood samples were usually collected following at least 10 hours of fasting (including last gildeuretinol acetate intake), preferably in the morning. For the 7 mg/day and the 14 mg/day groups only, after the first and last dose, blood samples were collected every 4 hours for 24 hours. A liquid chromatography/mass spectrometry assay was used to measure the metabolite levels.
Table 2 provides % D3 Retinol (gildeuretinol, i.e. the percentage of deuterated retinol (gildeuretinol) over total retinol (as deuterated+non-deuterated) in plasma measured 12-24 hours following gildeuretinol acetate intake.
Pharmacokinetic Results (integrated levels over 24 hours post dosing): total vitamin A in plasma, both deuterated (gildeuretinol) and non-deuterated (retinol), was measured every 4 hours following administration of 7 mg or 14 mg at the first dose, and following administration of the 28th dose (4 weeks of daily treatment). The area under the curve (AUC) was calculated and the % deuterated % D3 of total vitamin A (as retinol and gildeuretinol) was computed as an average over 24 hours.

[2] = TEASE-3: plasma gildeuretinol (replacement of plasma vitamin A); type: in vivo, human; conditions: 14 mg daily, after the first two months, all three participants
Procedure: The tolerability and effects of gildeuretinol acetate in Stargardt Disease (Clinical trial group 3 also known as TEASE-3) study was an open-label, multicenter, case control study designed to evaluate the efficacy and safety of gildeuretinol acetate on the progression of Stargardt disease in asymptomatic individuals. The trial was conducted at multiple sites in the United States.
To assess the safety and efficacy of gildeuretinol acetate in preventing vision loss in asymptomatic individuals, gildeuretinol acetate 14 mg capsules was administered to individuals showing early signs of retinal damage while maintaining approximately 20/20 vision and no subjective loss of vision. […] Based on the above family history and clinical observations, the individuals were likely to develop retinal lesions, loss of photoreceptors, drops in retinal sensitivity, loss of visual acuity, indicating the onset of symptoms, i.e. a progression to the symptomatic phase, including vision loss within two years, mirroring the progression observed in their older siblings.
Patients received gildeuretinol acetate 14 mg capsules, to be taken orally once daily. Trial visits occurred every 6 months approximately following screening and treatment start visits.

% gildeuretinol over retinol + gildeuretinol in plasma ([1]; 2 mg/day, after 2 weeks of treatment): 27%
% gildeuretinol over retinol + gildeuretinol in plasma ([1]; 2 mg/day, after 4 weeks of treatment): 31%
% gildeuretinol over retinol + gildeuretinol in plasma ([1]; 3.5 mg/day, after 2 weeks of treatment): 39%
% gildeuretinol over retinol + gildeuretinol in plasma ([1]; 3.5 mg/day, after 4 weeks of treatment): 46%
% gildeuretinol over retinol + gildeuretinol in plasma ([1]; 5 mg/day, after 2 weeks of treatment): 53%
% gildeuretinol over retinol + gildeuretinol in plasma ([1]; 5 mg/day, after 4 weeks of treatment): 51%
% gildeuretinol over retinol + gildeuretinol in plasma ([1]; 7 mg/day, 24 hours post 1st dose): 27%
% gildeuretinol over retinol + gildeuretinol in plasma ([1]; 7 mg/day, after 2 weeks of treatment): 55%
% gildeuretinol over retinol + gildeuretinol in plasma ([1]; 7 mg/day, after 4 weeks of treatment): 63%
% gildeuretinol over retinol + gildeuretinol in plasma ([1]; 10 mg/day, after 2 weeks of treatment): 66%
% gildeuretinol over retinol + gildeuretinol in plasma ([1]; 10 mg/day, after 4 weeks of treatment): 72%
% gildeuretinol over retinol + gildeuretinol in plasma ([1]; 14 mg/day, 24 hours post 1st dose): 41%
% gildeuretinol over retinol + gildeuretinol in plasma ([1]; 14 mg/day, after 2 weeks of treatment): 64%
% gildeuretinol over retinol + gildeuretinol in plasma ([1]; 14 mg/day, after 4 weeks of treatment): 79%
replacement of plasma vitamin A (retinol + gildeuretinol) with gildeuretinol [2]: 80%
SMILES: CC1=C(/C=C/C(C)=C/C=C/C(C)=C/CO)C(C)(C)CCC1 [gildeuretinol, C20D3-retinol]
